Experimental data: article PMC12622015 (bioRxiv, 2025)
pIC50: −log10 of the molar value.

Biological target: T1, IRAK4 (Homo sapiens, UniProt Q9NWZ3)
T1 sequence (Q9NWZ3 1-460): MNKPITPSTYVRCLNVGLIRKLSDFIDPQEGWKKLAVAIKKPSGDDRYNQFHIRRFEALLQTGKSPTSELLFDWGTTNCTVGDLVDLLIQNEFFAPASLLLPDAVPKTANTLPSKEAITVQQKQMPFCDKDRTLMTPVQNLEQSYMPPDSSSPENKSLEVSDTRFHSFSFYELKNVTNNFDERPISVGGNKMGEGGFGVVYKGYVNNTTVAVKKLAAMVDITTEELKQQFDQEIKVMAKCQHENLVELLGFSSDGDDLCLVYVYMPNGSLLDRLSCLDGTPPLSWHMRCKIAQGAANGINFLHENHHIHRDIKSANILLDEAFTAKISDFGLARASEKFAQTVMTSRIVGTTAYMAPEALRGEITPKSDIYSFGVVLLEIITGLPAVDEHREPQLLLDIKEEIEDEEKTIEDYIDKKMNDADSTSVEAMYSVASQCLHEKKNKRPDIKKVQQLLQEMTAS
Experiment: HotSpot kinase assay
Type: biochemical

pIC50: 8.55
Compound: COc1cc(N2CCN(C(=O)CCCC(=O)Nc3cccc4c3CN(C3CCC(=O)NC3=O)C4=O)CC2)ccc1NC(=O)c1cccc(-c2cc[nH]n2)n1 (stereo not shown) [PSP-0119, N-(4-(4-(5-((2-(2,6-dioxopiperidin-3-yl)-1-oxoisoindolin-4-yl)amino) −5-oxopentanoyl)piperazin-1-yl)-2-methoxyphenyl)-6-(1H-pyrazol-3-yl)picolinamide]
